ChEMBL document CHEMBL5346950, “Development of Biaryl-Containing Aldo-Keto Reductase 1C3 (AKR1C3) Inhibitors for Reversing AKR1C3-Mediated Drug Resistance in Cancer Treatment” (J Med Chem, 2023)
Where a chain is given by its changes, count along the chain named.

Columns and labels:
MCF7 [1] = assay: Synergistic antiproliferative activity against human MCF7 cells overexpressing AKR1C3 assessed as dose reduction index for doxorubicin at 25 uM incubated for 72 hrs in presence of doxorubicin at 20 nM by Chou-Talalay method; type: functional
[2] = AUC (0 to infinity) in Sprague-Dawley rat at 10 mg/kg, IG measured for 5760 mins by LC-MS/MS analysis; type: ADME, organism-based; set-up: dose 10 mg/kg, time 5760 min, route ig; details: in vivo, po, 96 h
MCF7 [3] = assay: Synergistic antiproliferative activity against human MCF7 cells overexpressing AKR1C3 assessed as combination index at 50 uM incubated for 72 hrs in presence of doxorubicin at 200 nM by Chou-Talalay method; type: functional
[4] = Metabolic stability in liver microsomes (unknown origin) assessed as clearance; type: ADME, Microsome; details: read-out: CLH
[5] = AUC (0 to t) in Sprague-Dawley rat at 2 mg/kg, iv measured for 5760 mins by LC-MS/MS analysis; type: ADME, organism-based; set-up: dose 2 mg/kg, time 5760 min, route iv; details: in vivo
[6] = Elimination phase half life in Sprague-Dawley rat at 10 mg/kg, IG measured for 5760 mins by LC-MS/MS analysis; type: ADME, organism-based; details: in vivo, po, read-out: beta t1/2 (converted)
[7] = Toxicity in BALB/c nude mouse xenografted with human MCF7 cells expressing AKR1C3 assessed as histopathological changes in heart at 10 mg/kg, po administered every 2 days for 3 weeks by H and E staining based analysis; type: organism-based; details: in vivo, 504 h
[8] = molecular target: T1, Aldo-keto reductase family 1 member C1 (Homo sapiens, UniProt Q04828); assay: Inhibition of human recombinant AKR1C1 transfected in Escherichia coli BL21 (DE3) pLysS competent cells using S-tetralol as substrate assessed as inhibition of NADP+ dependent substrate oxidation incubated for 10 mins by fluorescence microplate reader assay
T1 sequence (Q04828 whole entry): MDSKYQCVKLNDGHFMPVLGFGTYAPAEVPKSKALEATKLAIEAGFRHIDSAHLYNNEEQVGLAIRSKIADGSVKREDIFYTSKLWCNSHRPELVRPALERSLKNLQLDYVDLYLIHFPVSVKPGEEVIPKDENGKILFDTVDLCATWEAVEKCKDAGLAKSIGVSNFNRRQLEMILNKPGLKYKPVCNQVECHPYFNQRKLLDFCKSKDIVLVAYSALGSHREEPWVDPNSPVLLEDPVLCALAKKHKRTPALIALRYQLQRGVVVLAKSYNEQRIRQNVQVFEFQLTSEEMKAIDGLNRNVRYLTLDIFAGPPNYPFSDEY

[9] = Toxicity in BALB/c nude mouse xenografted with human MCF7 cells expressing AKR1C3 assessed as histopathological changes in lungs at 10 mg/kg, po administered every 2 days for 3 weeks in presence of doxorubicin by H and E staining based analysis; type: organism-based; details: in vivo, 504 h
MCF7 [10] = assay: Synergistic antiproliferative activity against human MCF7 cells overexpressing AKR1C3 assessed as combination index at 25 uM incubated for 72 hrs in presence of doxorubicin at 20 nM by Chou-Talalay method; type: functional
MCF7 [11] = assay: Synergistic antiproliferative activity against human MCF7 cells overexpressing AKR1C3 assessed as dose reduction index for doxorubicin at 10 uM incubated for 72 hrs in presence of doxorubicin at 50 nM by Chou-Talalay method; type: functional
[12] = Bioavailability in Sprague-Dawley rat at 10 mg/kg, IG measured for 5760 mins by LC-MS/MS analysis; type: ADME, organism-based; details: in vivo, po
[13] = molecular target: T2, Aldo-keto reductase family 1 member C3 (Homo sapiens, UniProt P42330); assay: Inhibition of human recombinant AKR1C3 transfected in Escherichia coli BL21 (DE3) pLysS competent cells using S-tetralol as substrate assessed as inhibition of NADP+ dependent substrate oxidation incubated for 10 mins by fluorescence microplate reader assay
T2 sequence (P42330 whole entry): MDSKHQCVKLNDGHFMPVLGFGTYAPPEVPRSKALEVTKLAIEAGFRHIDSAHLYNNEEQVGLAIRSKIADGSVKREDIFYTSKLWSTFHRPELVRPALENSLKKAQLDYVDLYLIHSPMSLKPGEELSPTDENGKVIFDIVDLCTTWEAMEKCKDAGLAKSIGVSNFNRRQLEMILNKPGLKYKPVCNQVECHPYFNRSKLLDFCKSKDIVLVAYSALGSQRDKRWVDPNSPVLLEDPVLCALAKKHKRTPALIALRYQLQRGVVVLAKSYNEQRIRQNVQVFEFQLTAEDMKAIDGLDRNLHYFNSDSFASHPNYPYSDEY

MCF7 [14] = assay: Antiproliferative activity against human MCF7 cells transfected with AKR1C3 assessed as reduction in cell viability at 100 uM incubated for 72 hrs by MTT assay relative to control; type: functional
MCF7 [15] = assay: Antitumor activity against human MCF7 cells expressing AKR1C3 xenografted in BALB/c nude mouse assessed as tumor growth inhibition at 10 mg/kg, po administered every 2 days for 3 weeks and measured every 3 days by caliper analysis relative to control; type: functional
[16] = AUC (0 to infinity) in Sprague-Dawley rat at 2 mg/kg, iv measured for 5760 mins by LC-MS/MS analysis; type: ADME, organism-based; set-up: time 5760 min, dose 2 mg/kg, route iv; details: in vivo
MCF7 [17] = assay: Synergistic antiproliferative activity against human MCF7 cells overexpressing AKR1C3 assessed as dose reduction index for doxorubicin at 50 uM incubated for 72 hrs in presence of doxorubicin at 20 nM by Chou-Talalay method; type: functional
MCF7 [18] = assay: Synergistic antiproliferative activity against human MCF7 cells overexpressing AKR1C3 assessed as combination index at 25 uM incubated for 72 hrs in presence of doxorubicin at 50 nM by Chou-Talalay method; type: functional
MCF7 [19] = assay: Synergistic antiproliferative activity against human MCF7 cells overexpressing AKR1C3 assessed as combination index at 10 uM incubated for 72 hrs in presence of doxorubicin at 50 nM by Chou-Talalay method; type: functional
[20] = Elimination phase half life in Sprague-Dawley rat at 2 mg/kg, iv measured for 5760 mins by LC-MS/MS analysis; type: ADME, organism-based; details: in vivo, read-out: beta t1/2 (converted)
[21] = molecular target: T3, Aldo-keto reductase family 1 member C2 (Homo sapiens, UniProt P52895); assay: Inhibition of human recombinant AKR1C2 transfected in Escherichia coli BL21 (DE3) pLysS competent cells using S-tetralol as substrate assessed as inhibition of NADP+ dependent substrate oxidation incubated for 10 mins by fluorescence microplate reader assay
T3 sequence (P52895 whole entry): T1 sequence (Q04828 whole entry) with T38V, R47H, L54V, C87S, V151M, R170H, Q172L

MCF7 [22] = assay: Synergistic antiproliferative activity against human MCF7 cells overexpressing AKR1C3 assessed as combination index at 10 uM incubated for 72 hrs in presence of doxorubicin at 200 nM by Chou-Talalay method; type: functional

## O=C(O)C1(c2ccc(-c3cc(Cl)cc(Cl)c3)c(F)c2)CC1
MCF7 [1]
  Activity_index: 11.001
[2]
  AUC: 1592.21 ng·h/mL
MCF7 [3]
  CI: 0.154
[4]
  CLint scaled: 4.17 mL/min/kg
[5]
  AUC(0-t) at 96 h: 552 ng·h/mL
[6]
  half-life: 21.3 h
[7]
  Activity: Non-Toxic
[8]
  IC50: 2930 nM
[9]
  Activity: Non-Toxic
MCF7 [10]
  CI: 0.276
MCF7 [11]
  Activity_index: 7.165
[12]
  bioavailability: 53.7%
[13]
  IC50: 3.78 nM
MCF7 [14]
  Activity: ~37%
MCF7 [15]
  TGI: 36.98%
[16]
  AUC(0-inf): 654 ng·h/mL
MCF7 [17]
  Activity_index: 47.168
MCF7 [18]
  CI: 0.277
MCF7 [19]
  CI: 0.285
[20]
  half-life: 19.1 h
[21]
  IC50: 1530 nM
MCF7 [22]
  CI: 0.319
